Measured values taken from patent US20110263046A1, “Methods of identification of novel ligands for modulation of orphan nuclear receptor RAR-related orphan receptor-gamma (NR1F3) activity” (PHENEX PHARMACEUTICALS AG, priority 2008, published 2011).
Entries after “also recorded” stand apart in the source; their conditions may differ.

Legend:
[1] = target: T1, RORgamma ligand binding domain (Homo sapiens, UniProt P51449); test: TR-FRET ligand sensing assay: RORγ-LBD / coactivator peptide interaction; type: biochemical; set-up: made in house; host or cells: E. coli BL21(DE3); conditions: for IC50: antagonistic
T1 sequence (P51449 267-518): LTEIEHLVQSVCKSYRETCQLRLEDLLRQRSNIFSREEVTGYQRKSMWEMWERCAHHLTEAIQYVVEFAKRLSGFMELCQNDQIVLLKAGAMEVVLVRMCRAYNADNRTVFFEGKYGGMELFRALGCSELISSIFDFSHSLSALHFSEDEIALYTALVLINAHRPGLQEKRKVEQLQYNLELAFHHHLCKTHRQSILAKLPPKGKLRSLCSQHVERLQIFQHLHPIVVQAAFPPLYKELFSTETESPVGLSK
Experimental: As described in more detail in the examples, a GST-RORgamma-LBD fusion protein is expressed and purified from E. coli. The TR-FRET assays were performed in a final volume of 25 μl in individual wells of a 384 well plate using a Tris-based buffer system: 10-50 mM Tris-HCl pH 7.9; 50-100 mM KCl, 1-10 mM MgCl2; 20-100 ng/μl BSA), containing 20-60 ng/well recombinantly expressed RORγ-LBD fused to GST, 200-600 nM N-terminally biotinylated peptide (e.g. derived from SRC-1 or TIF-2), 50-500 ng/well Streptavidin-xIAPC conjugate (Prozyme) and 2-20 ng/well Eu W1024-antiGST (Perkin Elmer).
The human RORg ligand binding domain (LBD) was expressed in E. coli strain BL21(DE3) as an N-terminal glutathione-S-transferase (GST) tagged fusion protein. The DNA encoding the RORg ligand binding domain was cloned into vector pDEST15 (Invitrogen). […] Expression in pDEST15 is controlled by a IPTG inducible T7 promoter and cloning and transformation of E. coli was done essentially according to standard protocols known to persons skilled in the art and supplied by Invitrogen.
Determination of the interaction of a ligand with the human RORgamma ligand binding domain was done by using a Ligand Sensing Assay based on Time-resolved Fluorescence Energy Transfer (TR-FRET).
This method measures the ability of putative ligands to modulate the interaction between the purified bacterial expressed RORg ligand binding domain (LBD) and synthetic N-terminally biotinylated peptides which are derived from nuclear receptor coactivator proteins such as but not limited to SRC1 (NcoA1), SRC2 (NcoA2,TIF2), SRC3 (NcoA3), PGC1α, PGC1β, CBP, GRIP1, TRAP220, RIP140.
(§1) The ligand binding domain (LBD) of RORγ was expressed as fusion protein with GST in […] cells using the vector pDEST15. Cells were lysed by lysozyme-treatment and sonication, and the fusion proteins purified over glutathione sepharose (Pharmacia) according to the manufacturers instructions. For screening of compounds for their influence on the RORγ-peptide interaction, the LANCE technology (Perkin Elmer) was applied. This method relies on the binding dependent energy transfer from a donor to an acceptor fluorophor attached to the binding partner of interest. For ease of handling and reduction of background from compound fluorescence LANCE technology makes use of generic fluorophore labels and time resolved detection assays were done in a final volume of 25 μl in a 384 well plate, in a Tris-based buffer (20 mM Tris-HCl pH 7.9; 60 mM KCl, 5 mM MgCl2; 35 ng/μl BSA), containing 20-60 ng/well recombinantly expressed RORγ-LBD fused to GST, 200-600 nM N-terminally biotinylated peptide, 200 ng/well Streptavidin-xIAPC conjugate (Prozyme) and 6-10 ng/well Eu W1024-antiGST (Perkin Elmer). DMSO content of the samples was kept at 1%. After generation of the assay mix the potentially RORγ modulating ligands were diluted. After his step, the assay was equilibrated for one hour in the dark at room temperature in FIA-plates black 384 well (Greiner). The LANCE signal was detected by a Perkin Elmer VICTOR2V™ Multilabel Counter. […] Ligands that promote the complex formation induce a concentration-dependent increase in time-resolved fluorescent signal.
Equation: Sigmoidal dose-response (variable slope) Y=Bottom+(Top-Bottom)/(1+10̂((LogEC50-X)*HillSlope))
This is identical to the “four parameter logistic equation”. The EC50 or IC50 values are calculated using this equation.

[2] = target: T1, RORgamma ligand binding domain; test: TR-FRET assay variation: agonist titration on top of saturating antagonist (4 μM LE540); type: biochemical; set-up: made in house; host or cells: E. coli BL21(DE3)
Text: as §1
In a variation of the assay described above, an antagonistic compound was added in a saturating concentration (4 μM) to the assay mix. Then the agonistic compounds were diluted and the assay was equilibrated for one hour in the dark.

[3] = target: T1, RORgamma ligand binding domain; test: Radioligand displacement assay (3H-25-hydroxycholesterol); set-up: made in house; host or cells: E. coli BL21 (DE3); conditions: FIG. 1; for apparent potency and efficacy of displacement: comparison among ligands; for displacement of 3H-25-hydroxycholesterol bound to RORgamma-LBD: dose dependent, radioligand at saturating concentration (500 nM)
Text: This method measures the ability of putative ligands to displace a radioactively labeled compound that is bound to the RORgamma ligand binding domain.
The ligand binding domain (LBD) of RORγ was expressed as fusion protein with GST in BL-21 cells using the vector pDEST15. Cells were lysed by lysozyme-treatment and sonication, and the fusion proteins purified over glutathione sepharose (Pharmacia) according to the manufacturers instructions. For screening of compounds for their ability to bind to RORγ, commercially available 25-26,27-[…]-hydroxycholesterol
(Perkin Elmer, NET674250UC) was bound to the protein and displacement by non radioactive ligands was observed. The assay was done in a final volume of 100 μl in a 96-well glutathione and scintillant coated microplate (Perkin Elmer, SMP109001PK). […] Compounds to be tested were titrated and added to the protein-radioligand mix. DMSO content of the samples was kept at 1%. After addition of the compounds, the assay was equilibrated for 30 min at room temperature. After this incubation the assay plate wells were washed twice with Tris buffer (20 mM Tris-HCl pH 7.5; 60 mM KCl, 5 mM MgCl2) and subsequently measured for 500 sec per well in a LUMIstar OPTIMA (BMG).

[4] = tested on: IL-17 production by peripheral blood human mononuclear cells (PBMCs); test: PBMC stimulation and IL-17 secretion assay (ELISA); type: cell-based; conditions: 72 h; for mean concentration of IL-17: anti-CD3/anti-CD28 stimulated PBMCs
Experimental: Cryopreserved peripheral blood human mononuclear cells (PBMCs) were used for the experiments. The cells were thawed in CTL-Anti-Aggregate-Wash™ solution and washed once in CTL Wash™ medium with benzonase. PBMCs, suspended in CTL serum-free test media (CTL-Test™ Medium), were plated into 96-well BD BioCoat Anti-Human CD3 T-Cell activation plate at a total of 1×10^5 cells/well in triplicate. The cells were incubated with anti-CD28 (2 μg/ml) in the absence or presence of LE540, LE135 and Am580 at different concentrations for 72 h at 37° C. with 5% CO2. The compounds were added at the time 0. The supernatants were harvested and assayed for IL-17 according to the protocol from the corresponding ELISA kit (Invitrogen). The detection range was 15.6-1,000.0 pg/ml. Data are presented as means±s.d. values.
In the control experiments PBMCs were stimulated with anti-CD3 (plate) and anti-CD28 in the presence of 0.1% DMSO. The mean concentration of IL-17 was 1,003.36±45.18 pg/ml. In contrast, the concentration of IL-17 in non stimulated cells was under the detection range (<15.6 pg/ml). […] The compounds were added to the cells at time 0 together with the anti-CD28 mAb. […] The lower concentration of LE540 (0.1 μM) was also very potent in PBMCs. […] The amount of IL-17 protein was down regulated after treatment of cells with 3, 1, and 0.3 μM of LE135 (FIG. 3).

[5] = agonistic, peptide TIF2(628-658), read-out: EC50
[6] = agonistic, assay includes 4 μM LE540, peptide TIF2(628-658), read-out: apparent EC50
[7] = Homo sapiens, PBMC, 0.3 μM compound, stimulated PBMCs, read-out: percentage of IL-17 inhibition

IC50 ([1]; peptide SRC1(676-700))	IC50 ([1]; peptide TIF2(628-658))	apparent potency and efficacy of displacement [3]	displacement of 3H-25-hydroxycholesterol bound to RORgamma-LBD [3]	Compound	EC50 [1, 5]	EC50 [2, 6]	production of IL-17 by human PBMCs (qualitative) ([4]; stimulated PBMCs)	other results
–	–	–	–	CC(C)CC[C@@H](O)[C@@H](C)[C@H]1CC[C@H]2[C@@H]3CC=C4C[C@@H](O)CC[C@]4(C)[C@H]3CC[C@]12C [22R-Hydroxycholesterol]	–	–	–	EC50 [1]: 0.0165 µM; EC50 [2]: 0.154 µM
–	–	–	–	C[C@@H](CO)CCC[C@@H](C)[C@H]1CC[C@H]2[C@@H]3CC=C4C[C@@H](O)CC[C@]4(C)[C@H]3CC[C@]12C [(25R)-26-Hydroxycholesterol]	0.0141 µM	0.146 µM	–	–
12.2 µM	11.3 µM	lowest potency and efficacy	able to displace	CC(C)(C)c1cc(C(=O)C=Cc2ccc(C(=O)O)cc2)cc(C(C)(C)C)c1 [Ch55]	–	–	–	displacement of 3H-25-hydroxycholesterol bound to RORgamma-LBD ([3]; listed as CH55): dose-dependent competitive displacement
–	–	–	–	COC(=O)CC[C@@H](C)[C@H]1CC[C@H]2[C@@H]3CC=C4C[C@@H](O)CC[C@]4(C)[C@H]3CC[C@]12C [Cholenic Acid Methyl Ester]	0.0275 µM	0.311 µM	–	EC50 ([1]; agonistic, peptide TIF2(628-658), listed as cholenic acid methyl ester, read-out: EC50): 0.0277 µM
–	–	–	–	C[C@H](CCC(=O)N(C)C)[C@H]1CC[C@H]2[C@@H]3CC=C4C[C@@H](O)CC[C@]4(C)[C@H]3CC[C@]12C [DMHCA]	0.0107 µM	0.085 µM	–	–
19.3 µM	13.2 µM	–	–	CN1c2cc3c(cc2N=C(c2ccc(C(=O)O)cc2)c2ccccc21)C(C)(C)CCC3(C)C [LE135]	–	–	inhibit the production of IL-17	inhibition at 0.3 µM [4, 7]: 35.8%; inhibition at 1 µM ([4]; Homo sapiens, PBMC, 1 μM compound, stimulated PBMCs, read-out: percentage of IL-17 inhibition): 61.9%; inhibition at 3 µM ([4]; Homo sapiens, PBMC, 3 μM compound, stimulated PBMCs, read-out: percentage of IL-17 inhibition): 75.9%
8.6 µM	8.2 µM	less potent but seems rather efficient	dose-dependent competitive displacement	C/C(=C\c1ccc(C(=O)O)cc1)c1ccc2c(c1)C(C)(C)CCC2(C)C [TTNPB]	–	–	–	displacement of 3H-25-hydroxycholesterol bound to RORgamma-LBD ([3]; listed as TTNBP): able to displace
23.4 µM	19.8 µM	–	–	Am580	–	–	inhibit the production of IL-17	level of IL-17 ([4]; 1 μM compound, stimulated PBMCs): within the control range; level of IL-17 ([4]; 5 μM compound, stimulated PBMCs): within the control range; percentage of IL-17 inhibition ([4]; 10 μM compound, stimulated PBMCs): 69.73%

Compound	IC50 ([1]; peptide SRC1(676-700))	IC50 ([1]; peptide TIF2(628-658))	apparent potency and efficacy of displacement [3]	displacement of 3H-25-hydroxycholesterol bound to RORgamma-LBD [3]	EC50 [1, 5]	EC50 [2, 6]	production of IL-17 by human PBMCs (qualitative) ([4]; stimulated PBMCs)	other results
CN1c2cc3c(cc2N=C(c2ccc(C(=O)O)cc2)c2ccc4ccccc4c21)C(C)(C)CCC3(C)C [LE540]	3.6 µM	4.9 µM	highest	able to displace; also recorded: dose-dependent competitive displacement	–	–	inhibit the production of IL-17	mean concentration of IL-17 ([4]; 0.1 μM compound): 659.39 pg/mL; mean concentration of IL-17 ([4]; 0.3 μM compound): 289.69 pg/mL; inhibition at 0.1 µM ([4]; Homo sapiens, PBMC, 0.1 μM compound, stimulated PBMCs, read-out: percentage of IL-17 inhibition): 34.3%; inhibition at 0.3 µM [4, 7]: 71.1%
